Measurements taken from article PMC3001719, “The heme sensing response regulator HssR in Staphylococcus aureus but not the homologous RR23 in Listeria monocytogenes modulates susceptibility to the antimicrobial peptide plectasin” (BMC Microbiology, 2010).

Experiments:
S. aureus = assay: ATP leakage (intracellular and extracellular ATP, bioluminescence); type: cell-based, Staphylococcus aureus; details: S. aureus, 500 μg/ml peptide, 50 mM HEPES pH 7.0 with 0.2% glucose, vs peptide dilution buffer; two independent experiments
Method: L. monocytogenes and S. aureus were grown in TSB at 37°C. Bacteria were harvested (10 min at 3000 RPM) at mid-exponential phase (absorbance at 546 nm of 2.5 ± 0.2 and 1.0 ± 0.2 for S. aureus and L. monocytogenes, respectively), washed once in 50 mM potassium phosphate buffer pH 7.0 and once in 50 mM HEPES buffer pH 7.0. The pellet was resuspended in 50 mM HEPES pH 7.0 to a final absorbance at 546 nm of 10. Bacteria were stored on ice and used within 5 hours. […] ATP was determined using a bioluminescence kit (Sigma, FLAA-1KT) and a BioOrbit 1253 luminometer. Total ATP content was determined by rapidly permeabilising 20 μl cell suspension with 80 μl dimethyl sulfoxide. The cell suspension was diluted in 4.9 ml sterile water, and ATP content was determined in 100 μl of the preparation as described by the manufacturer. To determine the extracellular ATP concentration, the 20 μl cell suspension was mixed with 80 μl sterile water and analyzed as described above. Intracellular ATP concentrations were calculated by using the intracellular volumes of 0.85 and 1.7 μm^3 for S. aureus and L. monocytogenes, respectively. The number of cells in suspension was determined by plate spreading.

[1] = test system: S. aureus wild type and hssR mutants; assay: Extracellular protein profile by SDS-PAGE; type: cell-based, Staphylococcus aureus; details: S. aureus wild type and hssR mutants grown with or without plectasin overnight at 37°C in TSB; data not shown
Method: Prewarmed TSB and BHI (25 ml) in a 250 ml Erlenmeyer flask was inoculated with S. aureus strains and L. monocytogenes strains, respectively. These flasks were grown with and without plectasin at 37°C overnight (≈ 17 h) with shaking. The next morning, the exact absorbance at 600 nm of the cultures was measured, and 15 ml of culture was centrifuged to precipitate the cells (6 000 RPM; 7 min; 0°C). The supernatant was transferred to a 50 ml Blue cap bottle (placed in an ice/water bath), and the extracellular proteins were precipitated by adding one volume of ice-cold 96% EtOH and left in the refrigerator overnight for proteins to precipitate. Precipitated proteins were collected by centrifugation (11,000 RPM; 30 min; 0°C). Protein pellets were suspended in a volume of 50 mM Tris-HCl (pH 6.8) adjusted to the original absorbance of the overnight culture so that 15 ml of overnight culture with absorbance at 600 nm of 5.0 was suspended in 0.8 ml of 50 mM Tris-HCl (pH 6.8). A sample of 15 μl of the protein extracts was analysed on NuPAGE® 4-12% Bis-Tris gels (Invitrogen) using the X Cell SureLock® Mini-Cell system (Invitrogen) as recommended by the supplier. The gels were Coomassie stained using GelCode® Blue Stain Reagent (Pierce).

[2] = test system: S. aureus 8325-4 hssR::bursa/pRMC2-hssRS; assay: Growth in TSB with plectasin; type: cell-based, Staphylococcus aureus; details: plectasin 35 μg/ml, 37°C, absorbance at 600 nm
Method: (§1) Overnight cultures of S. aureus were diluted to an absorbance at 600 nm of 0.05 in TSB with and without 4 μM hemin and/or 35 μg/ml plectasin and grown at 37°C. Measurements of the absorbance were made every 30 minutes.

[3] = test system: S. aureus 15981 wild type; assay: Growth in TSB with plectasin; type: cell-based, Staphylococcus aureus; details: plectasin 35 μg/ml, 37°C, absorbance at 600 nm
Method: as §1

[4] = test system: S. aureus 15981 ΔTCS15 (hssRS) mutant; assay: Growth in TSB with plectasin; type: cell-based, Staphylococcus aureus; details: plectasin 35 μg/ml, 37°C, absorbance at 600 nm
Method: as §1

[5] = test system: S. aureus 8325-4 hssR::bursa transposon mutant; assay: Growth in TSB with plectasin; type: cell-based, Staphylococcus aureus; details: plectasin 35 μg/ml, 37°C, absorbance at 600 nm
Method: as §1

[6] = test system: L. monocytogenes wild type; assay: Spontaneous mutation control on plectasin plates; type: cell-based, Listeria monocytogenes; details: L. monocytogenes wild type grown on BHI with 4, 5 or 10 fold MIC of plectasin
Method: The transposon mutant libraries were screened on agar plates for increased resistance to plectasin as compared to wild-type sensitivity. Wild-type sensitivity was determined by plating approx. 1.0 × 10^7 CFU/ml on TSB agar containing plectasin (S. aureus) and approx. […] Plates were incubated at 37°C for 3 days and inspected for growth. […]

## CC[C@H](C)[C@@H]1NC(=O)[C@H](CO)NC(=O)[C@H](CCCCN)NC(=O)[C@@H]2CSSC[C@@H](C(=O)N[C@@H](Cc3ccc(O)cc3)C(=O)O)NC(=O)[C@H](CCCCN)NC(=O)[C@@H]3CSSC[C@H](NC(=O)[C@H](CCC(N)=O)NC(=O)[C@H](CCSC)NC(=O)[C@H](CC(=O)O)NC(=O)[C@H](CC(=O)O)NC(=O)[C@H](CCC(=O)O)NC(=O)[C@H](CC(=O)O)NC(=O)[C@H](Cc4c[nH]c5ccccc45)NC(=O)[C@@H]4CCCN4C(=O)CNC(=O)[C@H](CC(N)=O)NC(=O)[C@@H](NC(=O)CNC(=O)[C@H](Cc4ccccc4)NC(=O)CN)CSSC[C@H](NC(=O)[C@H](Cc4ccc(O)cc4)NC(=O)CNC(=O)CNC(=O)[C@H](CCCCN)NC(=O)[C@H](Cc4ccc(O)cc4)NC(=O)CNC(=O)[C@H](CCCCN)NC1=O)C(=O)N[C@@H](C)C(=O)N[C@@H](CCCCN)C(=O)NCC(=O)NCC(=O)N[C@@H](Cc1ccccc1)C(=O)N[C@@H](C(C)C)C(=O)N3)C(=O)N[C@@H](Cc1c[nH]cn1)C(=O)N[C@@H](CC(N)=O)C(=O)N[C@@H](Cc1c[nH]cn1)C(=O)N2 [plectasin]
S. aureus
  ATP leakage (intracellular ATP concentration): remained at the same level as the controls
[1]
  Abundance of extracellular proteins: no difference in the abundance of extracellular proteins
[2]
  Growth in the presence of plectasin: inhibited the growth to a level comparable to wild type
[3]
  Growth in the presence of plectasin: inhibited the growth
[4]
  Growth in the presence of plectasin: hardly affected the growth
[5]
  Growth in the presence of plectasin: hardly affected the growth
[6]
  Spontaneous mutations leading to changes in sensitivity: no spontaneous mutations
